Source: ChEMBL document CHEMBL1201862, “PubChem BioAssay data set” (2004)
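Growth conditions: 96-well plates. Treatment: test compound, 48 hours, 5 concentrations. Analysis: linear interpolation between bracketing concentrations; unreached endpoints set to highest concentration. The concentration for 50% growth inhibition is given as GI50.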 Calls of active or inactive are those of the source. No stated cut-off is given here; in the data, active = GI50 up to about 1.1 µM and inactive = higher.

Tests used:
Test in all cases: NCI anticancer screen, dose series, 48 h
[1] = system: 786-0
[2] = system: A498
[3] = system: A549
[4] = system: ACHN
[5] = system: CCRF-CEM
[6] = system: COLO 205
[7] = system: DU-145
[8] = system: EKVX
[9] = system: HCC 2998
[10] = system: HCT-116
[11] = system: HCT-15
[12] = system: HL-60
[13] = system: HOP-62
[14] = system: HOP-92
[15] = system: HT-29
[16] = system: Hs-578T
[17] = system: IGROV-1
[18] = system: K562
[19] = system: KM12
[20] = system: LOX IMVI
[21] = system: M14
[22] = system: MCF7
[23] = system: MDA-MB-231
[24] = system: MDA-MB-435
[25] = system: MOLT-4
[26] = system: Malme-3M
[27] = system: NCI-H226
[28] = system: NCI-H23
[29] = system: NCI-H460
[30] = system: NCI/ADR-RES
[31] = system: OVCAR-4
[32] = system: OVCAR-5
[33] = system: OVCAR-8
[34] = system: RPMI-8226
[35] = system: RXF 393
[36] = system: SF-268
[37] = system: SF-295
[38] = system: SF-539
[39] = system: SK-MEL-28
[40] = system: SK-MEL-5
[41] = system: SK-OV-3
[42] = system: SN12C
[43] = system: SNB-19
[44] = system: SNB-75
[45] = system: SR
[46] = system: SW-620
[47] = system: T47D
[48] = system: TK-10
[49] = system: U-251
[50] = system: UACC-257
[51] = system: UACC-62
[52] = system: UO-31
[53] = system: MDA-N
[54] = system: NCI-H522
[55] = system: OVCAR-3
[56] = system: PC-3
[57] = system: SK-MEL-2
[58] = system: CAKI-1

Fc1ccc2c3c([nH]c2c1)CCNC3
GI50 [1]: > 100 µM (inactive) | GI50 [2]: 20.4 µM (inactive) | GI50 [3]: > 100 µM (inactive) | GI50 [4]: 65.3 µM (inactive) | GI50 [5]: > 100 µM (inactive) | GI50 [6]: > 100 µM (inactive) | GI50 [7]: > 100 µM (inactive) | GI50 [8]: > 100 µM (inactive) | GI50 [9]: 76 µM (inactive) | GI50 [10]: > 100 µM (inactive) | GI50 [11]: > 100 µM | GI50 [12]: > 100 µM (inactive) | GI50 [13]: > 100 µM (inactive) | GI50 [14]: 29.5 µM (inactive) | GI50 [15]: > 100 µM (inactive) | GI50 [16]: > 100 µM (inactive) | GI50 [17]: > 100 µM (inactive) | GI50 [18]: > 100 µM (inactive) | GI50 [19]: > 100 µM (inactive) | GI50 [20]: > 100 µM (inactive) | GI50 [21]: > 100 µM (inactive) | GI50 [22]: > 100 µM (inactive) | GI50 [23]: > 100 µM (inactive) | GI50 [24]: 77.1 µM (inactive) | GI50 [25]: > 100 µM (inactive) | GI50 [26]: > 100 µM (inactive) | GI50 [27]: 59.6 µM (inactive) | GI50 [28]: > 100 µM (inactive) | GI50 [29]: > 100 µM (inactive) | GI50 [30]: > 100 µM (inactive) | GI50 [31]: > 100 µM (inactive) | GI50 [32]: > 100 µM (inactive) | GI50 [33]: > 100 µM (inactive) | GI50 [34]: > 100 µM (inactive) | GI50 [35]: > 100 µM (inactive) | GI50 [36]: > 100 µM (inactive) | GI50 [37]: 67.8 µM (inactive) | GI50 [38]: > 100 µM (inactive) | GI50 [39]: > 100 µM (inactive) | GI50 [40]: > 100 µM (inactive) | GI50 [41]: > 100 µM (inactive) | GI50 [42]: > 100 µM (inactive) | GI50 [43]: > 100 µM (inactive) | GI50 [44]: > 100 µM (inactive) | GI50 [45]: > 100 µM (inactive) | GI50 [46]: > 100 µM (inactive) | GI50 [47]: > 100 µM (inactive) | GI50 [48]: > 100 µM (inactive) | GI50 [49]: > 100 µM (inactive) | GI50 [50]: > 100 µM (inactive) | GI50 [51]: > 100 µM (inactive) | GI50 [52]: 31.8 µM (inactive)

O=C1/C(=C/c2ccc(Cl)cc2)NC(=S)N1CN1CCCCC1
GI50 [1]: 30.2 µM (inactive) | GI50 [2]: 61.5 µM (inactive) | GI50 [3]: 34.1 µM (inactive) | GI50 [4]: 24.6 µM (inactive) | GI50 [5]: 17.8 µM (inactive) | GI50 [6]: 28 µM (inactive) | GI50 [7]: 45.8 µM (inactive) | GI50 [8]: 28.2 µM (inactive) | GI50 [10]: 34.4 µM (inactive) | GI50 [11]: 22.6 µM | GI50 [13]: 87.9 µM (inactive) | GI50 [14]: 50.5 µM (inactive) | GI50 [15]: 15.8 µM (inactive) | GI50 [16]: 21.5 µM (inactive) | GI50 [17]: 33.8 µM (inactive) | GI50 [18]: 34 µM (inactive) | GI50 [19]: 38.7 µM (inactive) | GI50 [20]: 37.8 µM (inactive) | GI50 [21]: 35.1 µM (inactive) | GI50 [22]: 29.2 µM (inactive) | GI50 [23]: 49.9 µM (inactive) | GI50 [24]: 45.5 µM (inactive) | GI50 [53]: 63 µM (inactive) | GI50 [25]: 30.2 µM (inactive) | GI50 [26]: 21.5 µM (inactive) | GI50 [27]: 32.3 µM (inactive) | GI50 [28]: 37.2 µM (inactive) | GI50 [54]: 18 µM (inactive) | GI50 [30]: 19.3 µM (inactive) | GI50 [55]: 36.7 µM (inactive) | GI50 [32]: 37.5 µM (inactive) | GI50 [33]: 36.7 µM (inactive) | GI50 [56]: 48.4 µM (inactive) | GI50 [34]: 20 µM (inactive) | GI50 [36]: 20.5 µM (inactive) | GI50 [37]: 36.9 µM (inactive) | GI50 [39]: 61.2 µM (inactive) | GI50 [57]: 73.1 µM (inactive) | GI50 [40]: 31 µM (inactive) | GI50 [41]: 63.4 µM (inactive) | GI50 [42]: 40.6 µM (inactive) | GI50 [43]: 17.7 µM (inactive) | GI50 [44]: 36.3 µM (inactive) | GI50 [45]: 34.8 µM (inactive) | GI50 [46]: 20.7 µM (inactive) | GI50 [48]: 39 µM (inactive) | GI50 [49]: 47.2 µM (inactive) | GI50 [51]: 13.1 µM (inactive) | GI50 [52]: 28.1 µM (inactive)

COc1ccc(N(C(=O)NCCO)c2ccccc2)cc1
GI50 [1]: > 100 µM (inactive) | GI50 [2]: > 100 µM (inactive) | GI50 [3]: > 100 µM (inactive) | GI50 [4]: > 100 µM (inactive) | GI50 [58]: > 100 µM (inactive) | GI50 [5]: > 100 µM (inactive) | GI50 [6]: > 100 µM (inactive) | GI50 [7]: > 100 µM (inactive) | GI50 [8]: > 100 µM (inactive) | GI50 [9]: > 100 µM (inactive) | GI50 [10]: > 100 µM (inactive) | GI50 [11]: > 100 µM | GI50 [12]: > 100 µM (inactive) | GI50 [13]: > 100 µM (inactive) | GI50 [14]: > 100 µM (inactive) | GI50 [15]: > 100 µM (inactive) | GI50 [16]: > 100 µM (inactive) | GI50 [17]: > 100 µM (inactive) | GI50 [18]: > 100 µM (inactive) | GI50 [19]: > 100 µM (inactive) | GI50 [20]: > 100 µM (inactive) | GI50 [21]: > 100 µM (inactive) | GI50 [22]: > 100 µM (inactive) | GI50 [23]: > 100 µM (inactive) | GI50 [24]: > 100 µM (inactive) | GI50 [53]: > 100 µM (inactive) | GI50 [25]: > 100 µM (inactive) | GI50 [26]: > 100 µM (inactive) | GI50 [27]: > 100 µM (inactive) | GI50 [28]: > 100 µM (inactive) | GI50 [29]: > 100 µM (inactive) | GI50 [54]: > 100 µM (inactive) | GI50 [30]: > 100 µM (inactive) | GI50 [55]: > 100 µM (inactive) | GI50 [31]: > 100 µM (inactive) | GI50 [32]: > 100 µM (inactive) | GI50 [33]: > 100 µM (inactive) | GI50 [56]: > 100 µM (inactive) | GI50 [34]: > 100 µM (inactive) | GI50 [35]: > 100 µM (inactive) | GI50 [36]: > 100 µM (inactive) | GI50 [37]: > 100 µM (inactive) | GI50 [38]: > 100 µM (inactive) | GI50 [39]: > 100 µM (inactive) | GI50 [57]: > 100 µM (inactive) | GI50 [40]: > 100 µM (inactive) | GI50 [41]: > 100 µM (inactive) | GI50 [42]: > 100 µM (inactive) | GI50 [43]: > 100 µM (inactive) | GI50 [44]: > 100 µM (inactive) | GI50 [45]: > 100 µM (inactive) | GI50 [46]: > 100 µM (inactive) | GI50 [47]: > 100 µM (inactive) | GI50 [48]: > 100 µM (inactive) | GI50 [49]: > 100 µM (inactive) | GI50 [50]: > 100 µM (inactive) | GI50 [51]: > 100 µM (inactive) | GI50 [52]: > 100 µM (inactive)
